Experimental data as given in patent US20180085345A1, “METHODS OF TRACKING SKIN CONDITIONS USING CYCLOLIGNAN COMPOUNDS” (m. Alphabet 2, L.L.C., priority 2015, published 2018).

Legend:
[1] = tested on: actinic keratoses; experiment: Randomized, blinded study of topical picropodophyllin solution in actinic keratoses: lesion count in the treatment area; assay type: in vivo, patients; settings: topical twice daily for 1 week
Experimental: To date, 56 patients have been studied to determine the efficacy of picropodophyllin in treating actinic keratoses. The patients were randomized into four groups, and the patients in each group were treated with a solution containing either 0.5%, 1.25%, or 2.0% picropodophyllin (w/v) in propylene glycol, or a placebo constituting only the vehicle propylene glycol. The picropodophyllin solution was prepared in 100% propylene glycol solution. The solutions were prepared aseptically following GMP protocols. The affected areas of the body variously included the scalp, face, arms, and legs. Without knowing which one of the four solutions they were applying, the subjects self-applied one of the solutions to the skin. After initial application, the subjects gently massaged the solutions into their skin. This was done twice daily for 1 week. Lesions (actinic keratosis) were palpated and visualized by a trained lesion counter who is a board certified dermatologist. The same investigator evaluated each subject at each visit for consistency. The subjects were evaluated at baseline, day 3, day 7, day 14, day 28, day 56 and day 90. Within the treatment area, the number of lesions were counted, regardless of their size. The change in the number of lesions (% decline from baseline) within the treatment area was calculated and the results are shown in the table below: […]

[2] = tested on: insulin-like growth factor-1 (IGF-1); settings: shown in WO 02/102804; cited from earlier work
[3] = cited from earlier work

Structure (SMILES): COc1cc([C@@H]2c3cc4c(cc3[C@H](O)[C@H]3COC(=O)[C@@H]23)OCO4)cc(OC)c1OC [PPP, picropodophyllin]
- % Decline from Baseline (number of lesions within the treatment area) ([1]; 0.50% w/v in propylene glycol, 28 days): −56^AB %
- % Decline from Baseline (number of lesions within the treatment area) ([1]; 0.50% w/v in propylene glycol, 56 days): −82^AB %
- % Decline from Baseline (number of lesions within the treatment area) ([1]; 0.50% w/v in propylene glycol, 90 days): −90^AB %
- % Decline from Baseline (number of lesions within the treatment area) ([1]; 1.25% w/v in propylene glycol, 28 days): −53^AB %
- % Decline from Baseline (number of lesions within the treatment area) ([1]; 1.25% w/v in propylene glycol, 56 days): −73^AB %
- % Decline from Baseline (number of lesions within the treatment area) ([1]; 1.25% w/v in propylene glycol, 90 days): −65^AB %
- % Decline from Baseline (number of lesions within the treatment area) ([1]; 2.00% w/v in propylene glycol, 28 days): −17%
- % Decline from Baseline (number of lesions within the treatment area) ([1]; 2.00% w/v in propylene glycol, 56 days): −55^AB %
- % Decline from Baseline (number of lesions within the treatment area) ([1]; 2.00% w/v in propylene glycol, 90 days): −84^AB %
- inhibition of insulin-like growth factor-1 (IGF-1) [2]: potent inhibitor
- solubility in water [3]: nearly completely insoluble
